Results on eight compounds are retold here after ChEMBL document CHEMBL2029210, “Synthesis of constrained benzocinnolinone analogues of CEP-26401 (irdabisant) as potent, selective histamine H3 receptor inverse agonists” (Bioorg Med Chem Lett, 2012).

Data set [1] has as its target T1, Histamine H3 receptor (Homo sapiens, UniProt Q9Y5N1). In words: Displacement of [3H]NAMH from human histamine H3 receptor expressed in CHO cell membrane. Type of data set: cell membranes.
The target of data set [2] is Histamine H3 receptor (Rattus norvegicus, UniProt Q9QYN8). The data set can be described thus: Displacement of [3H]NAMH from rat histamine H3 receptor expressed in CHO cell membrane. Type of data set: cell membranes.
The target in data set [3] is Histamine H1 receptor (Homo sapiens) (UniProt P35367). The data set can be described thus: Binding affinity to human histamine H1 receptor at 10 uM by radioligand binding assay.
The target in data set [4] is Histamine H2 receptor (Homo sapiens) (UniProt P25021). The data set can be described thus: Binding affinity to human histamine H2 receptor at 10 uM by radioligand binding assay.
For data set [5], the target named is Histamine H4 receptor (Homo sapiens) (UniProt Q9H3N8). The data set can be described thus: Binding affinity to human histamine H4 receptor at 10 uM by radioligand binding assay.
For data set [6], the species on record is Homo sapiens. The data set can be described thus: Selectivity ratio of Ki for human H1 receptor to Ki for human H3 receptor.
The species entered for data set [7] is Homo sapiens. In words: Selectivity ratio of Ki for human H2 receptor to Ki for human H3 receptor.
The species named for data set [8] is Homo sapiens. The data set can be described thus: Selectivity ratio of Ki for human H4 receptor to Ki for human H3 receptor.
Data set [9] in a line: (§1) Half life in rat at 1 mg/kg, iv. Type of data set: ADME, organism-based. On the set-up: dose 1 mg/kg, route intravenous. The following applies: in vivo.
Data set [10] is described as follows: (§2) Volume of distribution in rat at 1 mg/kg, iv. Set-up: dose 1 mg/kg, route intravenous. Type of data set: ADME, organism-based. The following applies: in vivo.
A short description of data set [11]: Clearance in rat at 1 mg/kg, iv. Type of data set: ADME, organism-based. On the set-up: dose 1 mg/kg, route intravenous. The following applies: in vivo.
Data set [12] can be described thus: AUC in rat at 5 mg/kg, po. Type of data set: ADME, organism-based. Set-up: dose 5 mg/kg, route oral. The following applies: plasma.
Data set [13] is described as follows: Cmax in rat at 5 mg/kg, po. Type of data set: ADME, organism-based. On the set-up: dose 5 mg/kg, route oral. The following applies: in vivo.
Data set [14] is described as follows: Oral bioavailability in rat at 5 mg/kg. Type of data set: ADME, organism-based. The following applies: in vivo.
The target of another data set is hERG (KCNH2) (Homo sapiens, UniProt Q12809). In words: Displacement of astemizole from human ERG at 10 uM. The following applies: probe astemizole.
In data set [15] the target is T1, Histamine H3 receptor. In words: Inverse agonist activity at human H3 receptor by [35S]GTPgamma binding assay. Type of data set: functional.
The target of the next data set is T2, Cytochrome P450 1A2 (Homo sapiens, UniProt P05177).
T2 sequence (P05177 whole entry): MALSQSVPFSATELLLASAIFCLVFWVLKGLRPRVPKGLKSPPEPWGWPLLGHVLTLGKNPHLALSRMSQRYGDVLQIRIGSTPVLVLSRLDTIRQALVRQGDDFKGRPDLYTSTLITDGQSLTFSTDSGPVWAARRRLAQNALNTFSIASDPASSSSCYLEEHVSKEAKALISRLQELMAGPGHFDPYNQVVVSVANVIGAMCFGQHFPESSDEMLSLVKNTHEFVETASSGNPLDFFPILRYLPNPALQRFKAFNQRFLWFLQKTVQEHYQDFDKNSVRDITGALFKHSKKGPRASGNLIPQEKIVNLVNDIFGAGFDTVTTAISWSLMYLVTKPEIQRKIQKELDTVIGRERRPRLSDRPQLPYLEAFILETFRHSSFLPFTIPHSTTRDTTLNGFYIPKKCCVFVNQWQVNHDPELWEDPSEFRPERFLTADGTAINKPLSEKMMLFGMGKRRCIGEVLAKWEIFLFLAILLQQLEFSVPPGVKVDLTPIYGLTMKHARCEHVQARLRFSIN
The data set can be described thus: Inhibition of CYP1A2. Type of data set: ADME.

Another data set concerns the target Cytochrome P450 2C9 (Homo sapiens, UniProt P11712). In words: Inhibition of CYP2C9. Type of data set: ADME.
A further data set has as its target Cytochrome P450 2C19 (Homo sapiens, UniProt P33261). The data set can be described thus: Inhibition of CYP2C19. Type of data set: ADME.
A further data set concerns the target Cytochrome P450 2D6 (Homo sapiens, UniProt P10635). In words: Inhibition of CYP2D6. Type of data set: ADME.
The target of the next data set is Cytochrome P450 3A4 (Homo sapiens, UniProt P08684). In words: Inhibition of CYP3A4. Type of data set: ADME.
Data set [16] deals with Rattus norvegicus. Described as §1. Type of data set: ADME, organism-based. On the set-up: dose 1 mg/kg, route intravenous. The following applies: in vivo.
Data set [17] has as its system Rattus norvegicus. The description is as §2. Type of data set: ADME, organism-based. Set-up: dose 1 mg/kg, route intravenous. To be noted: in vivo.
The nature of data set [18]: Drug uptake in rat brain at 5 mg/kg, po after 6 hrs. Type of data set: ADME, organism-based. Set-up: dose 5 mg/kg, route oral. To be noted: read-out: Drug uptake.
Data set [19] is described as follows: Ratio of drug uptake in brain to plasma in rat at 5 mg/kg, po. Type of data set: ADME, organism-based. Set-up: dose 5 mg/kg, route oral. The following applies: read-out: BPR.

Chain of Histamine H2 receptor (Homo sapiens) (P25021 whole entry): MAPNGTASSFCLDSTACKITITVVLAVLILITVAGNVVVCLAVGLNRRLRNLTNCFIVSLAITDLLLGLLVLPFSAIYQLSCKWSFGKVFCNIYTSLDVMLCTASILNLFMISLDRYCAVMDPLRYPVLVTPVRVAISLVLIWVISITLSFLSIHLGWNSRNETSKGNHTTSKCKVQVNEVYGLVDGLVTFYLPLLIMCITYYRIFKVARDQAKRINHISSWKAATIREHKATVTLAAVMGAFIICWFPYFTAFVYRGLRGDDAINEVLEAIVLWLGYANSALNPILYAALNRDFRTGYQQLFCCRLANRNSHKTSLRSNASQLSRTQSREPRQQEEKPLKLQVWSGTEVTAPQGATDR
Chain of Histamine H3 receptor (Rattus norvegicus, UniProt Q9QYN8) (Q9QYN8 whole entry): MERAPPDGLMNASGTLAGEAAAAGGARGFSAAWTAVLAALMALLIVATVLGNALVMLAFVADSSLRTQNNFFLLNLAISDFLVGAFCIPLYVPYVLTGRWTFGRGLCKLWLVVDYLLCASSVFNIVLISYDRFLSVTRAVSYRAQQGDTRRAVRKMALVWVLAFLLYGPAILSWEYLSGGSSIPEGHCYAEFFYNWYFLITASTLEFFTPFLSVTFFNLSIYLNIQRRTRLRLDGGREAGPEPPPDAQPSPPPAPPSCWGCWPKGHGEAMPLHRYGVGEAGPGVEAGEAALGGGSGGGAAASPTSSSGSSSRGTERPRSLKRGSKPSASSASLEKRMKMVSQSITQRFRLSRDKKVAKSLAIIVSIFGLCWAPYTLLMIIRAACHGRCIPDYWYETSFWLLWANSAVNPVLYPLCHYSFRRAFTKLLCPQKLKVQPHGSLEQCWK
Chain of Histamine H1 receptor (Homo sapiens) (P35367 whole entry): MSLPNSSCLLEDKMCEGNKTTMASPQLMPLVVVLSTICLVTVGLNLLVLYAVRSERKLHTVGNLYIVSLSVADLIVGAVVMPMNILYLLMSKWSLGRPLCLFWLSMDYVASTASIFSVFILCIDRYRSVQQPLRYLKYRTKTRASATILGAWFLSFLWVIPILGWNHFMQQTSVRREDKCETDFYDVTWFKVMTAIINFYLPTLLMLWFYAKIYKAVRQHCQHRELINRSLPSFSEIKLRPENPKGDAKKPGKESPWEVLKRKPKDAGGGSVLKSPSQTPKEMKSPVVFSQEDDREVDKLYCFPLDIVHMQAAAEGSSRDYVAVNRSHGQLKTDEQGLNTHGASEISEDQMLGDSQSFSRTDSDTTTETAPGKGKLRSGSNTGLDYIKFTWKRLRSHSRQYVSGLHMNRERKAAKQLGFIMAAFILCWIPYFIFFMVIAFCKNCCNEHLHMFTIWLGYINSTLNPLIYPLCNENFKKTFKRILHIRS
T1 sequence (Q9Y5N1 whole entry): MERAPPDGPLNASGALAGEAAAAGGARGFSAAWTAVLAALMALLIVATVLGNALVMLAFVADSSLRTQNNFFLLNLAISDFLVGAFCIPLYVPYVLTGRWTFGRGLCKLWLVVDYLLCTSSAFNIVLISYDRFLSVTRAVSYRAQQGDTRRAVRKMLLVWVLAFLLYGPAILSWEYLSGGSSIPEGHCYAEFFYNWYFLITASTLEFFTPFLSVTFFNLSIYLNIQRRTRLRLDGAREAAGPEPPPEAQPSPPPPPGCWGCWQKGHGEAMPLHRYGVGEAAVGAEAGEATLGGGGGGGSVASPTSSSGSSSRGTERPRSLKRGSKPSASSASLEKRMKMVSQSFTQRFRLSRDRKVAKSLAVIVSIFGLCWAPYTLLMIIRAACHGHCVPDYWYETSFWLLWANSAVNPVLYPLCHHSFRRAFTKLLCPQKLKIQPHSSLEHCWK
Chain of Histamine H4 receptor (Homo sapiens) (Q9H3N8 whole entry): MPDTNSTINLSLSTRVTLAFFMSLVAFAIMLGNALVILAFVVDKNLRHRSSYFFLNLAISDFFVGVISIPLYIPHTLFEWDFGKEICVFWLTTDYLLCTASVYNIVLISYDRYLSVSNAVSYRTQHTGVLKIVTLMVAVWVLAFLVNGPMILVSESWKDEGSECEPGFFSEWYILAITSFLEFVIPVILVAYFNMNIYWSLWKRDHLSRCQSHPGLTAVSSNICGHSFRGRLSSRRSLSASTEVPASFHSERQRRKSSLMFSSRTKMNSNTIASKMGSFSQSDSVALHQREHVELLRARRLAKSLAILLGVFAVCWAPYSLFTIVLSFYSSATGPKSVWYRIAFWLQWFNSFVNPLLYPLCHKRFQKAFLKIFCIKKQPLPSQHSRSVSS
Chain of Cytochrome P450 3A4 (P08684 whole entry): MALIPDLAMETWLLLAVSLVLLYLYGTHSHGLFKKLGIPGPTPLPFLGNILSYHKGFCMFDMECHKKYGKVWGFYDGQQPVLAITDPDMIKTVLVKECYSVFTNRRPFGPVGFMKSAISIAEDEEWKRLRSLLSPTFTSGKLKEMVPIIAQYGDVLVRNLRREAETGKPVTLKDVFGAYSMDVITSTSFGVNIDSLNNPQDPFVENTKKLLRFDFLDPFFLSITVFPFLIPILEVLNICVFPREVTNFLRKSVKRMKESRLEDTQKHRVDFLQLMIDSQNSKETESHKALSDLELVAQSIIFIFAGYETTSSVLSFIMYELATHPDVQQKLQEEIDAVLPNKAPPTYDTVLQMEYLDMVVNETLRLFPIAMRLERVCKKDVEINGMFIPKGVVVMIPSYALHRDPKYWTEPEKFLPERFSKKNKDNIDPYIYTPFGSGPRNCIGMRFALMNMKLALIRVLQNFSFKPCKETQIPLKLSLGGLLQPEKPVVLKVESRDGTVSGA
Chain of Cytochrome P450 2C9 (P11712 whole entry): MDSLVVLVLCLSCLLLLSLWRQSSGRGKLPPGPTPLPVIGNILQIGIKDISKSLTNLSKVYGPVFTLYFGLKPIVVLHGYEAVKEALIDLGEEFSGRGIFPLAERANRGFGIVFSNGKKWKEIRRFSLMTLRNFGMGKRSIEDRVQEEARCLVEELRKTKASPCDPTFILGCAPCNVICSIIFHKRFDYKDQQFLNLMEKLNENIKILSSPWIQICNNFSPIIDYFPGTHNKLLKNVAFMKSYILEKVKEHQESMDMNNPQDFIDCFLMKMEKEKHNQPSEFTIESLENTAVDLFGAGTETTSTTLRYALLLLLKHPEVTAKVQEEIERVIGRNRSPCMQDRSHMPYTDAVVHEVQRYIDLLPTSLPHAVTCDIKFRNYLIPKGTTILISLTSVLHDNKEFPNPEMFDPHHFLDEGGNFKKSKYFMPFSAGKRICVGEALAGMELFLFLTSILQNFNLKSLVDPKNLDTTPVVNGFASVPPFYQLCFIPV
Chain of Cytochrome P450 2C19 (P33261 whole entry): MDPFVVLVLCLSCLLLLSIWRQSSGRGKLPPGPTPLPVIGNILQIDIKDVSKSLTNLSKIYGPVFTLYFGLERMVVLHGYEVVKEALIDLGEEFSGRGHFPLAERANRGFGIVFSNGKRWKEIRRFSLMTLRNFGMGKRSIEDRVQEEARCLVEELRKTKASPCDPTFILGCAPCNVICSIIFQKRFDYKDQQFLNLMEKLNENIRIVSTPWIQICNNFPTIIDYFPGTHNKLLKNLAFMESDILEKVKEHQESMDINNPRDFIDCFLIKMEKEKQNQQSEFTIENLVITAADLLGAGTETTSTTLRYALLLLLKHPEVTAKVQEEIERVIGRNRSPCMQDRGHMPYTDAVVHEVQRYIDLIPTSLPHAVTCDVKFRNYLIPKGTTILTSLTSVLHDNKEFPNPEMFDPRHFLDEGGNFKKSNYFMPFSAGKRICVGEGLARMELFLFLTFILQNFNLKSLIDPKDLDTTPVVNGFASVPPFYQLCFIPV
Chain of Cytochrome P450 2D6 (P10635 whole entry): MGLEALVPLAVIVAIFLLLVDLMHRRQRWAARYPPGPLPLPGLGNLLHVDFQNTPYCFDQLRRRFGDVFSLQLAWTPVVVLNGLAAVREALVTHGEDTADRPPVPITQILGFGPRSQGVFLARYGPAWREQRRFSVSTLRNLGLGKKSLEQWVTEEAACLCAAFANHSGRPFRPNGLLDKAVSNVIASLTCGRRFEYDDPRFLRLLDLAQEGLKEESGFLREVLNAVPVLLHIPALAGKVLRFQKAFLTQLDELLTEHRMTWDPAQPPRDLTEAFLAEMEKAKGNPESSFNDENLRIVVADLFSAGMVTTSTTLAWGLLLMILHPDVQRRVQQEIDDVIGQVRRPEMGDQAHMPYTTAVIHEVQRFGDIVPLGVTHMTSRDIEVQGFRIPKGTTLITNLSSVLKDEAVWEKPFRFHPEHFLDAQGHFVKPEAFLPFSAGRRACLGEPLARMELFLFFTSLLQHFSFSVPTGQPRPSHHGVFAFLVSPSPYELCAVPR

As to `C[C@@H]1CCCN1CCCOc1ccc2c(c1)CCc1cc(=O)[nH]nc1-2`, the Ki at Histamine H3 receptor [1] was 4.3 nM; at Histamine H3 receptor [2] it was 14 nM. The inhibition in [3], in data set [4] and in [5] was under 40% in each case. The Ratio Ki in the data set listed under Homo sapiens [6], in the data set filed under Homo sapiens [7] and in the data set filed under Homo sapiens [8] was over 1000 each time. For the same compound, the half-life in data set [9] was 84 min. The compound also yielded a distribution volume (Vd) in data set [10] of 1.2 L/kg. In data set [11], the clearance turned out to be 11 mL/min/kg. Also, the AUC in [12] came out at 191 ng·h/mL. In [13], this compound yielded a Cmax of 34 ng/mL. In data set [14], this compound came in with a bioavailability of 2%.

For `O=c1cc2c(nn1Cc1ccccc1)-c1ccc(OCCCN3CCCCC3)cc1CC2`, the Ki on Histamine H3 receptor [1] turned out to be 105 nM; on Histamine H3 receptor [2] it was 140 nM.

For `C[C@@H]1CCCN1CCCOc1ccc2c(c1)CCc1n[nH]c(=O)cc1-2`, the Ki stood at 6.2 nM on Histamine H3 receptor [1] and 19 nM on Histamine H3 receptor [2]. The inhibition in [3], in [4] and in data set [5] was under 45% each time.

On to `CC(C)n1nc2c(cc1=O)CCc1cc(OCCCN3CCC[C@H]3C)ccc1-2`, for which the Ki was found to be 4.2 nM on Histamine H3 receptor [1] and 17 nM at Histamine H3 receptor [2]. Further, the inhibition in data set [3], in data set [4] and in data set [5] was under 40% in each case. The Ratio Ki in the data set filed under Homo sapiens [6], in the data set listed under Homo sapiens [7] and in the data set filed under Homo sapiens [8] was over 1000 in each case.

Consider `C[C@@H]1CCCN1CCCOc1ccc2c(c1)CCc1cc(=O)n(C)nc1-2`, for which the results for the Ki at Histamine H3 receptor [1] and on Histamine H3 receptor [2] were 3.6 nM and 8.3 nM, respectively. Further, the inhibition in data set [3], in data set [4] and in data set [5] was under 40% throughout. The Ratio Ki in the data set filed under Homo sapiens [6], in the data set filed under Homo sapiens [7] and in the data set filed under Homo sapiens [8] was over 1000 throughout. This compound came in with an inhibition at 10 µM at hERG (KCNH2) of 34%. On Histamine H3 receptor [15], it took 1.7 nM to reach a half-maximal effect (EC50). Besides, the IC50 against Cytochrome P450 1A2, against Cytochrome P450 2C9, against Cytochrome P450 2C19, against Cytochrome P450 2D6 and against Cytochrome P450 3A4 was over 30000 nM each time. In [9], this compound had a half-life of 24 min. In data set [10], this compound returned a Vd of 1.3 L/kg. Moreover, in data set [11], the clearance amounted to 36 mL/min/kg. This compound returned an AUC in data set [12] of 80 ng·h/mL. For the same compound, in [13], the peak level (Cmax) was 24 ng/mL. The same compound displayed a bioavailability in [14] of 3%.

Consider `C[C@@H]1CCCN1CCCOc1ccc2c(c1)CCC1CC(=O)NN=C21` (mixture of isomers), for which the Ki was 15 nM on Histamine H3 receptor [1] and 53 nM on Histamine H3 receptor [2]. The compound also had a half-life in [9] of 42 min. For the same compound, the Vd in data set [10] stood at 6 L/kg. The clearance in [11] was 93 mL/min/kg. The same compound showed an AUC in data set [12] of 96 ng·h/mL. In data set [13], this compound yielded a Cmax of 27 ng/mL. In addition, in [14], the bioavailability is 11%.

Regarding `O=C1CC2CCc3cc(OC4CCN(C5CCC5)CC4)ccc3C2=NN1` (racemic), the Ki at Histamine H3 receptor [1] amounted to 17 nM; at Histamine H3 receptor [2], 26 nM. Besides, the t1/2 in the data set with Rattus norvegicus [16] was 54 min. The compound also showed a Vd in the data set on Rattus norvegicus [17] of 6.6 L/kg. The compound also displayed an AUC in [12] of 468 ng·h/mL. Further, in data set [13], the peak level (Cmax) was 75 ng/mL. This compound also showed a bioavailability in [14] of 44%. In addition, in data set [18], the concentration at 6 h is 780 nM. In addition, the Kp in data set [19] is 5.2.

On to `C[C@@H]1CCCN1CCCOc1ccc2c(c1)CCc1cc(=O)n(-c3ccccc3)nc1-2`, for which the Ki at Histamine H3 receptor [1] was 16 nM; at Histamine H3 receptor [2], 23 nM.
